Patent publication US7531482B2, “Thieno-pyrimidine compounds having fungicidal activity” (Dow AgroSciences LLC, priority 2005, dated 2009)
Read-outs that look alike come from different tables or passages of the source.

Legend:
Format in all cases: in vivo
[1] = tested on: Puccinia recondita tritici; assay: Leaf Rust of Wheat (PUCCRT) whole-plant disease control test; conditions: Puccinia recondita, foliar, read-out: PUCCRT disease control
[2] = tested on: Magnaporthe grisea=Pyricularia oryzae; assay: whole plant or invertebrate; conditions: Pyricularia oryzae, foliar, read-out: PYRIOR disease control, 200 ppm applied to foliage of rice; inoculated one day after treatment
Erysiphe cichoracaerum = assay: Cucumber Powdery Mildew (ERYSCI) whole-plant disease control test; conditions: Erysiphe, foliar, read-out: ERYSCI disease control
Phytophthora infestans = assay: whole plant or invertebrate; conditions: Phytophthora infestans, in Solanum lycopersicum, foliar, read-out: PHYTIN disease control, 200 ppm applied to foliage of tomato; inoculated one day after treatment
Colletotricum lagenarium = assay: Cucumber Anthracnose (COLLLA) whole-plant disease control test; conditions: Cucumis sativus, foliar, read-out: COLLLA disease control
Leptosphaeria nodorum = assay: Glume Blotch of Wheat (LEPTNO) whole-plant disease control test; conditions: Parastagonospora nodorum, foliar, read-out: LEPTNO disease control
[3] = tested on: Mycosphaerella graminicola=Septoria tritici; assay: Speckled Leaf Blotch of Wheat (SEPTTR) whole-plant disease control test; conditions: Mycosphaerella, foliar, read-out: SEPTTR disease control
[4] = 200 ppm applied to foliage of wheat, inoculated one day after treatment
[5] = 200 ppm applied to foliage of cucumber, inoculated one day after treatment
[6] = 75 ppm applied to foliage of wheat

SMILES	pest or weed control at 200 ppm [1, 4] [%]	pest or weed control at 200 ppm [2] [%]	pest or weed control at 200 ppm (Erysiphe cichoracaerum; [5]) [%]	pest or weed control at 200 ppm (Phytophthora infestans) [%]	pest or weed control at 200 ppm (Colletotricum lagenarium; [5]) [%]	pest or weed control at 200 ppm (Leptosphaeria nodorum; [4]) [%]	pest or weed control at 75 ppm [3, 6] [%]	pest or weed control at 200 ppm [1] [%]	pest or weed control at 200 ppm (Erysiphe cichoracaerum) [%]	pest or weed control at 200 ppm (Colletotricum lagenarium) [%]	pest or weed control at 200 ppm (Leptosphaeria nodorum) [%]	pest or weed control at 75 ppm [3] [%]
FC(F)(F)c1ccnc(Oc2cccc(CCNc3ncnc4scc(Cl)c34)c2)c1 [Compound 69]	80 to 100	80 to 100	50 to 79	0 to 49	0 to 49	0 to 49	50 to 79					
Cc1cc(OC(F)F)cnc1Oc1ccc(CCNc2ncnc3scc(Cl)c23)cc1 [Compound 70]	80 to 100	80 to 100	0 to 49	50 to 79	80 to 100	80 to 100	80 to 100					
N#Cc1c(Cl)cncc1Oc1ccc(CCNc2ncnc3scc(Cl)c23)cc1 [Compound 71]	80 to 100	80 to 100	50 to 79	0 to 49	80 to 100	80 to 100	80 to 100					
N#Cc1ccncc1Oc1ccc(CCNc2ncnc3scc(Cl)c23)cc1 [Compound 74]	80 to 100	80 to 100	0 to 49	50 to 79	80 to 100	80 to 100	50 to 79					
FC(F)(F)c1cc(Oc2ccc(CCNc3ncnc4scc(Cl)c34)cc2)cc(C(F)(F)F)n1 [Compound 75]	80 to 100	80 to 100	80 to 100	0 to 49	80 to 100	80 to 100	50 to 79					
FC(F)(F)c1cc(Oc2ccc(CCNc3ncnc4scc(Cl)c34)cc2)nc(C(F)(F)F)c1 [Compound 76]	80 to 100	80 to 100	0 to 49	0 to 49	50 to 79	50 to 79	0 to 49					
Clc1csc2ncnc(NCCc3ccc(Oc4cccc(C(Cl)(Cl)Cl)n4)cc3)c12 [Compound 77]	80 to 100	80 to 100	0 to 49	0 to 49	0 to 49	80 to 100	0 to 49					
FC(F)(F)c1ncccc1Oc1ccc(CCNc2ncnc3scc(Cl)c23)cc1 [Compound 78]	80 to 100	80 to 100	80 to 100	50 to 79	50 to 79	80 to 100	50 to 79					
COC(=O)c1cccc(Oc2ccc(CCNc3ncnc4scc(Cl)c34)cc2)n1 [Compound 79]	80 to 100	80 to 100	0 to 49	80 to 100	0 to 49	0 to 49	0 to 49					
CCOC(=O)c1cccc(Oc2ccc(CCNc3ncnc4scc(Cl)c34)cc2)n1 [Compound 80]	80 to 100	80 to 100	0 to 49	80 to 100	0 to 49	0 to 49	0 to 49					
COc1cc(C#N)cc(Oc2ccc(CCNc3ncnc4scc(Cl)c34)cc2)n1 [Compound 81]	80 to 100	80 to 100	50 to 79	0 to 49	50 to 79	80 to 100	50 to 79					
Cc1cccc(Oc2ccc(CCNc3ncnc4scc(Cl)c34)cc2)n1 [Compound 85]	80 to 100	80 to 100	80 to 100	80 to 100	50 to 79	80 to 100	80 to 100					
Clc1csc2ncnc(NCCc3ccc(Oc4ncnc5scnc45)cc3)c12 [Compound 86]	80 to 100	50 to 79	50 to 79	80 to 100	0 to 49	50 to 79	80 to 100					
COc1cc(Oc2ccc(CCNc3ncnc4scc(Cl)c34)cc2)c(Br)cn1 [Compound 87]	80 to 100	80 to 100	80 to 100	50 to 79	0 to 49	50 to 79	50 to 79					
COc1cc(C(F)(F)F)cc(Oc2ccc(CC(C)Nc3ncnc4scc(Cl)c34)cc2)n1 (centres unmarked) [Compound 88]	80 to 100	80 to 100	80 to 100	0 to 49	50 to 79	0 to 49	50 to 79					
Clc1csc2ncnc(NCCc3ccc(Oc4cccc(-n5cccn5)n4)cc3)c12 [Compound 89]	80 to 100	80 to 100	80 to 100	0 to 49	0 to 49	80 to 100	50 to 79					
CS(=O)(=O)c1cccc(Oc2ccc(CCNc3ncnc4scc(Cl)c34)cc2)n1 [Compound 91]	80 to 100	80 to 100	50 to 79	80 to 100	0 to 49	80 to 100	0 to 49					
CC(Cc1ccc(Oc2c(Cl)cnc(C(F)(F)F)c2Cl)cc1)Nc1ncnc2scc(Cl)c12 (centres unmarked) [Compound 94]	80 to 100	80 to 100	50 to 79	0 to 49	50 to 79	0 to 49	0 to 49					
CS(=O)(=O)c1cc(Oc2ccc(CCNc3ncnc4scc(Cl)c34)cc2)ccn1 [Compound 95]	80 to 100	80 to 100	0 to 49	80 to 100	50 to 79	80 to 100	50 to 79					
N#CCc1cccc(Oc2ccc(CCNc3ncnc4scc(Cl)c34)cc2)n1 [Compound 97]		80 to 100		80 to 100				80 to 100	0 to 49	50 to 79	80 to 100	50 to 79
O=C(Nc1ccc(CCNc2ncnc3scc(Cl)c23)cc1)c1ccnc(Cl)c1 [Compound 99, 2-Chloro-N-{4-[2-(5-chlorothieno[2,3,-d]pyrimidin-4-ylamino)ethyl]phenyl}isonicotinamide]	80 to 100	80 to 100	0 to 49	50 to 79	50 to 79	0 to 49	0 to 49					
N#Cc1nc(F)c(F)c(Oc2ccc(CCNc3ncnc4scc(Cl)c34)cc2)c1F [Compound 103]	50 to 79	50 to 79	0 to 49	0 to 49	50 to 79	50 to 79	0 to 49					
Clc1ccc(COc2ccc(CCNc3ncnc4scc(Cl)c34)cc2)cn1 [Compound 104]	80 to 100	80 to 100	0 to 49	0 to 49	50 to 79	0 to 49	50 to 79					
FC(F)(F)c1ccc(COc2ccc(CCNc3ncnc4scc(Cl)c34)cc2)o1 [Compound 105]	50 to 79	80 to 100	0 to 49	0 to 49	0 to 49	0 to 49	0 to 49					
CC(C)OC(=O)c1cnc(Oc2ccc(CCNc3ncnc4scc(Cl)c34)cc2)c(Cl)c1 [Compound 106]	80 to 100	80 to 100	0 to 49	0 to 49	0 to 49	0 to 49	50 to 79					
CC(C)c1cncnc1COc1ccc(CCNc2ncnc3scc(Cl)c23)cc1 [Compound 107]	80 to 100	80 to 100	0 to 49	80 to 100	0 to 49	0 to 49	50 to 79					
